The values below come from US9820989B2, “Method of treating conditions with kinase inhibitors” (Allergan, Inc., priority 2012, dated 2017).

The target of this assay is PDGFRβ kinase (Homo sapiens (Human), UniProt P09619). In words: PDGFRβ Kinase Assay (biochemical, poly-Glu-Tyr ELISA). The following applies: purified cytoplasmic domain PDGFR-b protein, 36 μM ATP. How it is done: Biochemical PDGFRβ kinase assays were performed in 96 well microliter plates that were coated overnight with 75 μg of poly-Glu-Tyr (4:1) in 10 mM Phosphate Buffered Saline (PBS), pH 7.4. The coated plates were washed with 2 mls per well PBS+0.05% Tween-20 (PBS-T), blocked by incubation with PBS containing 1% BSA, then washed with 2 mls per well PBS-T prior to starting the reaction. Reactions were carried out in 100 μL reaction volumes containing 36 μM ATP in kinase buffer (50 mM Hepes buffer pH 7.4, 20 mM MgCl2, 0.1 mM MnCl2 and 0.2 mM Na3VO4). Test compounds were reconstituted in 100% DMSO and added to the reaction to give a final DMSO concentration of 5%. Reactions were initiated by the addition 20 ul per well of kinase buffer containing 200-300 ng purified cytoplasmic domain PDGFR-b protein (Millipore). […] The reaction was terminated by the addition of 100 μl of 2.5N H2SO4 to each well and read using a microplate ELISA reader set at 492 nm. IC50 values for compound inhibition were calculated directly from graphs of optical density (arbitrary units) versus compound concentration following subtraction of blank values.
PDGFRβ kinase, sequence (P09619 554-1106): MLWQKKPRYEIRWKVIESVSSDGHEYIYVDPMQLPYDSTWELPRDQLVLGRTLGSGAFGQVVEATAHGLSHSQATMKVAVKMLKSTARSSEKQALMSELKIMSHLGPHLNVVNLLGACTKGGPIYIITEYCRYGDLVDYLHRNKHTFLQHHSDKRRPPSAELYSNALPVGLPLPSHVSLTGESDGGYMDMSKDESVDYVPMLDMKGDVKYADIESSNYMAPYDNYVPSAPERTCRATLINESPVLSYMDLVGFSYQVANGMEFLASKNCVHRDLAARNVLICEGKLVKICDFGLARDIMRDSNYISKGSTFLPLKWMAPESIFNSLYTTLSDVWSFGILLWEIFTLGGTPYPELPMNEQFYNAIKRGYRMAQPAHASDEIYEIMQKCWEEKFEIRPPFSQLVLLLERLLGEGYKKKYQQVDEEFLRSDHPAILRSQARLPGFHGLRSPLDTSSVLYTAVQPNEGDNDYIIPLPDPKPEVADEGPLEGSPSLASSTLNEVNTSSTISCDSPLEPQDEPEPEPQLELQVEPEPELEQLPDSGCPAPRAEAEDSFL
IC50 values for test compounds were calculated from % inhibition of PDGF-BB stimulated responses in the absence of inhibitor.

In turn, `CC(C)c1ccc(NC(=O)c2cc(N3Cc4cnc(N)nc4C3)ccn2)cc1` [Example 83, 4-(2-amino-5,7-dihydro-6H-pyrrolo[3,4-d]pyrimidin-6-yl)-N-(4-isopropylphenyl)pyridine-2-carboxamide] gave a concentration for half-maximal inhibition (IC50) of more than 10 µM.
